# Literature values, collected in patent US20080305171A1, “PYRROLOPYRAZINE, FORMULATIONS, METHODS OF MANUFACTURE, AND METHODS OF USE THERE” (priority 2007, published 2008).
# Settings: ethanol:phosphate buffer solution, increasing temperature and pH
smiles,measurement,value
"CN1CCN(C(=O)OC2c3nccnc3C(=O)N2c2ccc(Cl)cn2)CC1 (racemic) [COMPOUND II, 6-(5-chloro-2-pyridyl)-5-[(4-methyl-1-piperazinyl)carbonyloxy]-7-oxo-6,7-dihydro-5H-pyrrolo[3,4-b]pyrazine]",chemical and isomeric stability in solution,both degrades and racemizes
